Test results as given in patent US10709709B2, “Substituted carbonucleoside derivatives useful as anticancer agents” (Pfizer Inc., priority 2016, dated 2020).

molecular target: PRMT5/MEP50 protein complex (Homo sapiens (Human), UniProt O14744); assay: PRMT5 biochemical assay (3H-SAM methylation of H4(1-21) peptide, filter plate scintillation); conditions: 10 nM PRMT5/MEP50 complex, 200 nM H4(1-21) peptide, 1 uM SAM, 25 minute incubation at room temperature
Method: Biochemical Assay Methods
Compounds were solubilized in DMSO and serially diluted, using 3-fold dilutions, into 100% DMSO at a concentration 50-fold greater than the desired assay concentration. Following dilution, 1 ul was added to an empty 96-well microtiter plate. PRMT5/MEP50 protein complex was combined with H4(1-21) peptide ([…]) in PRMT5 assay buffer (50 mM Tris pH 8.5, 50 mM NaCl, 5 mM MgCl2, 1 mM EDTA, 1 mM TCEP) and 44 ul was added to the microtiter plate containing compound. S-Adenosyl-L-methionine (SAM) was prepared by combining ^3H labelled SAM with unlabelled SAM in PRMT5 assay buffer such that the final SAM concentration was 10 uM and the specific activity was 0.2 uCi/ul. The reaction was initiated by adding 5 ul of SAM stock to the microtiter plate. The final reaction conditions were 10 nM PRMT5/MEP50 complex, 200 nM peptide and 1 uM SAM. Following a 25 minute incubation at room temperature, the reaction was stopped with the addition of 100 uL of 20% TCA. The 3H-peptide product was captured using a 96-well filter plate (MSIPN4B, Millipore) and washed 5 times with PBS buffer. Scintillation fluid (100 ul) was added to the dried filter plate and counted in a liquid scintillation counter. IC50 values were determined by fitting the data to the standard 4-parameter dose response equation using Pfizer proprietary software.
Results for the biochemical assay of examples are summarized in Table 1, shown as IC50 values in μM.

Chain of PRMT5/MEP50 protein complex (O14744 other isoform, or with tags, fused parts or gaps): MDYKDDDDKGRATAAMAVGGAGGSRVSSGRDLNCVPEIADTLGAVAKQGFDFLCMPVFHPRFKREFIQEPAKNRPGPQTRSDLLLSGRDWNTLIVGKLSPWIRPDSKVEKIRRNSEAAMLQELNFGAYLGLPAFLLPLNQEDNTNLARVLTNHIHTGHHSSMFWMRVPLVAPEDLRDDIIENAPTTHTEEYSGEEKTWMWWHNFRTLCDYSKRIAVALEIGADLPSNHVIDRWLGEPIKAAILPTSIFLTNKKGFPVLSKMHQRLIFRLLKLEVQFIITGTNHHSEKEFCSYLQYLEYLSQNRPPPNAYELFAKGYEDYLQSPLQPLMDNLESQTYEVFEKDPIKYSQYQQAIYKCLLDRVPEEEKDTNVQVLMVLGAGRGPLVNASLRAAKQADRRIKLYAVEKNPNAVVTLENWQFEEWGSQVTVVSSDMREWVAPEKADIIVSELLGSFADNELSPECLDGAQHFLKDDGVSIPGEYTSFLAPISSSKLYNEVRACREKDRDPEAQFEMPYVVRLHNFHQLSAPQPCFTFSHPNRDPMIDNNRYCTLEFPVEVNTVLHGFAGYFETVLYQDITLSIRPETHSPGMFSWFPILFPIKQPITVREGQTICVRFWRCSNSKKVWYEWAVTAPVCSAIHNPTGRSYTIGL
Chain of PRMT5/MEP50 protein complex (Q9BQA1 whole entry partner): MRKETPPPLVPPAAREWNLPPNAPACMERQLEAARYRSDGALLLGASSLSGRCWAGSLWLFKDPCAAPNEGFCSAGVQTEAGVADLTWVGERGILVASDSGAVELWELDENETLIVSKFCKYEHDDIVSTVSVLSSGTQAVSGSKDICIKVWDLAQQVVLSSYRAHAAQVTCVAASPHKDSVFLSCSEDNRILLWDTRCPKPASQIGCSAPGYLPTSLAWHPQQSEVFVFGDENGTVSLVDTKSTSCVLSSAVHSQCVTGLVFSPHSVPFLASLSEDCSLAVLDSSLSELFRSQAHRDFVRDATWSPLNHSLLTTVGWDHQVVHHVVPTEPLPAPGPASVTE

Compared with Cc1ncnc2c1ccn2[C@@H]1C[C@H](Oc2nccc3c2CNCC3)[C@@H](O)[C@H]1O [Example 157, (1S,2S,3R,5S)-3-(4-methyl-7H-pyrrolo[2,3-d]pyrimidin-7-yl)-5-((5,6,7,8-tetrahydro-2,7-naphthyridin-1-yl)oxy)cyclopentane-1,2-diol], CCOc1nc(O[C@H]2C[C@@H](n3ccc4c(C)ncnc43)[C@H](O)[C@@H]2O)c2c(c1F)CCNC2 [Example 192, (1S,2S,3S,5R)-3-((3-ethoxy-4-fluoro-5,6,7,8-tetrahydro-2,7-naphthyridin-1-yl)oxy)-5-(4-methyl-7H-pyrrolo[2,3-d]pyrimidin-7-yl)cyclopentane-1,2-diol] is 14-fold higher in IC50: 4 nM for the first, 55 nM for the second. The first is the more potent here.

Compared with Cc1ncnc2c1ccn2[C@@H]1C[C@H](Oc2cc(-c3cc[nH]n3)cc3c2CNCC3)[C@@H](O)[C@H]1O [Example 171, (1S,2S,3S,5R)-3-((6-(1H-pyrazol-3-yl)-1,2,3,4-tetrahydroisoquinolin-8-yl)oxy)-5-(4-methyl-7H-pyrrolo[2,3-d]pyrimidin-7-yl)cyclopentane-1,2-diol], Cc1ncnc2c1ccn2[C@@H]1C[C@H](Oc2cc(OC(C)C)c(F)c3c2CNCC3)[C@@H](O)[C@H]1O [Example 201, (1S,2S,3S,5R)-3-((5-fluoro-6-isopropoxy-1,2,3,4-tetrahydroisoquinolin-8-yl)oxy)-5-(4-methyl-7H-pyrrolo[2,3-d]pyrimidin-7-yl)cyclopentane-1,2-diol] is 22-fold higher in IC50: 14 nM for the first, 310 nM for the second.

Compared with Cc1ncnc2c1ccn2[C@@H]1C[C@H](Oc2cccc3c2CNC[C@@H](C)O3)[C@@H](O)[C@H]1O [Example 209, (1S,2S,3S,5R)-3-(((R)-2-methyl-2,3,4,5-tetrahydrobenzo[f][1,4]oxazepin-6-yl)oxy)-5-(4-methyl-7H-pyrrolo[2,3-d]pyrimidin-7-yl)cyclopentane-1,2-diol], Cc1ncnc2c1ccn2[C@@H]1C[C@H](Oc2cccc3c2[C@@H](N)CC3)[C@@H](O)[C@H]1O [Example 141, (1S,2S,3S,5R)-3-(((S)-3-amino-2,3-dihydro-1H-inden-4-yl)oxy)-5-(4-methyl-7H-pyrrolo[2,3-d]pyrimidin-7-yl)cyclopentane-1,2-diol] is 790-fold higher in IC50: 5 nM for the first, 3930 nM for the second. The first is the more potent here.

Cc1ncnc2c1ccn2[C@@H]1C[C@H](Oc2cc(Cl)c(Cl)cc2CN)[C@@H](O)[C@H]1O [Example 147, (1S,2S,3S,5R)-3-(2-(aminomethyl)-4,5-dichlorophenoxy)-5-(4-methyl-7H-pyrrolo[2,3-d]pyrimidin-7-yl)cyclopentane-1,2-diol] and Cc1ncnc2c1ccn2[C@@H]1C[C@H](Oc2ccccc2CN)[C@@H](O)[C@H]1O [Example 62, (1S,2S,3S,5R)-3-(2-(aminomethyl)phenoxy)-5-(4-methyl-7H-pyrrolo[2,3-d]pyrimidin-7-yl)cyclopentane-1,2-diol] are within 1.5-fold of each other in IC50: 24 nM for the first, 25 nM for the second.

Compared with Cc1ncnc2c1ccn2[C@@H]1C[C@H]([C@@H](CN)c2ccc(F)cc2)[C@@H](O)[C@H]1O [Example 52, (1S,2R,3R,5R)-3-[(1R)-2-amino-1-(4-fluorophenyl)ethyl]-5-(4-methyl-7H-pyrrolo[2,3-d]pyrimidin-7-yl)cyclopentane-1,2-diol], Cc1ncnc2c1ccn2[C@@H]1C[C@H](C(F)(CN)c2ccc(F)cc2)[C@@H](O)[C@H]1O (stereo partly drawn) [Example 50, (1S,2R,3S,5R)-3-[2-amino-1-fluoro-1-(4-fluorophenyl)ethyl]-5-(4-methyl-7H-pyrrolo[2,3-d]pyrimidin-7-yl)cyclopentane-1,2-diol] is 21-fold higher in IC50: 906 nM for the first, 18900 nM for the second. The first is the more potent here.

Compared with Cc1nc(N)nc(N(C)[C@@H]2C[C@H]([C@H](O)c3ccc(F)c(F)c3)[C@@H](O)[C@H]2O)n1 [Example 41, (1R,2S,3R,5R)-3-[(4-amino-6-methyl-1,3,5-triazin-2-yl)(methyl)amino]-5-[(S)-(3,4-difluorophenyl) (hydroxy)methyl]cyclopentane-1,2-diol], CN(c1ccnc(N)n1)[C@@H]1C[C@H]([C@@H](O)c2ccc(F)c(F)c2)[C@@H](O)[C@H]1O [Example 40, (1R,2S,3R,5R)-3-[(2-aminopyrimidin-4-yl)(methyl)amino]-5-[(R)-(3,4 difluorophenyl)(hydroxy)methyl] cyclopentane-1,2-diol] is 44-fold higher in IC50: 46 nM for the first, 2040 nM for the second.

Compared with Cc1ncnc2c1ccn2[C@@H]1C[C@H]([C@@H](O)c2cccc3c2CNCC3)[C@@H](O)[C@H]1O [Example 57, (1S,2R,3R,5R)-3-((R)-hydroxy(1,2,3,4-tetrahydroisoquinolin-8-yl)methyl)-5-(4-methyl-7H-pyrrolo[2,3-d]pyrimidin-7-yl)cyclopentane-1,2-diol], Cc1ncnc2c1ccn2[C@@H]1C[C@H]([C@@H](O)c2ccc(F)c(F)c2)[C@@H](O)[C@H]1O [Example 4, (1S,2R,5R)-3-[(R)-(3,4-difluorophenyl) (hydroxy)methyl]-5-(4-methyl-7H-pyrrolo[2,3-d]pyrimidin-7-yl)cyclopentane-1,2-diol] is 14-fold higher in IC50: 48 nM for the first, 681 nM for the second. The first is the more potent here.

First: Cc1nccc(O[C@@H]2C[C@H](Oc3cccc4c3CNCC4)[C@@H](O)[C@H]2O)n1 [Example 158, (1S,2R,3R,5S)-3-((2-methylpyrimidin-4-yl)oxy)-5-((1,2,3,4-tetrahydroisoquinolin-8-yl)oxy)cyclopentane-1,2-diol]
Second: Nc1ncnc2c1c(F)cn2[C@@H]1C[C@H](Oc2cccc3c2CNC3)[C@@H](O)[C@H]1O [Example 110, (1S,2S,3R,5S)-3-(4-amino-5-fluoro-7H-pyrrolo[2,3-d]pyrimidin-7-yl)-5-(2,3-dihydro-1H-isoindol-4-yloxy)cyclopentane-1,2-diol]
The IC50 of the first is higher: > 200000 nM for the first, 8 nM for the second.

Compared with Cc1cn([C@@H]2C[C@H](Oc3cc(F)c(F)c4c3CNCC4)[C@@H](O)[C@H]2O)c2ncnc(N)c12 [Example 179, (1S,2S,3R,5S)-3-(4-amino-5-methyl-7H-pyrrolo[2,3-d]pyrimidin-7-yl)-5-((5,6-difluoro-1,2,3,4-tetrahydroisoquinolin-8-yl)oxy)cyclopentane-1,2-diol], Cc1cc2c(c(O[C@H]3C[C@@H](n4cc(F)c5cnc(C)nc54)[C@H](O)[C@@H]3O)c1)CNCC2 [Example 127, (1S,2S,3R,5S)-3-(5-fluoro-2-methyl-7H-pyrrolo[2,3-d]pyrimidin-7-yl)-5-((6-methyl-1,2,3,4-tetrahydroisoquinolin-8-yl)oxy)cyclopentane-1,2-diol] is 9-fold higher in IC50: 1 nM for the first, 9 nM for the second.

First: Cc1ncnc2c1ccn2[C@@H]1C[C@H]([C@H](C)O)[C@@H](O)[C@H]1O [Example 2, (1S,2R,3R,5R)-3-((S)-1-hydroxyethyl)-5-(4-methyl-7H-pyrrolo[2,3-d]pyrimidin-7-yl)cyclopentane-1,2-diol]
Second: CO[C@@H]1C[C@H](n2ccc3c(C)ncnc32)[C@@H](O)[C@H]1O [Example 61, (1R,2R,3R,5S)-3-methoxy-5-(4-methyl-7H-pyrrolo[2,3-d]pyrimidin-7-yl)cyclopentane-1,2-diol]
The IC50 of the first is 4-fold higher: 8380 nM for the first, 2120 nM for the second.

Going from Cc1ncnc2c1ccn2[C@@H]1C[C@H]([C@@H](O)c2cc(F)c(F)c(F)c2)[C@@H](O)[C@H]1O [Example 14, (1S,2R,3R,5R)-3-[(R)-hydroxy(3,4,5-trifluorophenyl)methyl]-5-(4-methyl-7H-pyrrolo[2,3-d]pyrimidin-7-yl)cyclopentane-1,2-diol] to Cc1cccc(CC(O)[C@H]2C[C@@H](n3ccc4c(C)ncnc43)[C@H](O)[C@@H]2O)n1 (stereo partly drawn) [Example 15, (1S,2R,3R,5R)-3-[1-hydroxy-2-(6-methylpyridin-2-yl)ethyl]-5-(4-methyl-7H-pyrrolo[2,3-d]pyrimidin-7-yl)cyclopentane-1,2-diol], the IC50 rises from 719 nM to > 200000 nM. The first is the more potent here.
